According to ChEMBL document CHEMBL5032535, “Design, synthesis and biological evaluation of a novel spiro oxazolidinedione as potent p300/CBP HAT inhibitor for the treatment of ovarian cancer” (Bioorg Med Chem, 2021):
pEC50, pIC50: −log10 of the molar value. Active and inactive are the calls of the source. The calls are words filed in the database; no cut-off is given here.

Experiments:
CREB-binding protein = CREB-binding protein (Homo sapiens, UniProt Q92793); test: Inhibition of CBP (unknown origin) preincubated for 15 mins followed by addition of substrate [3H] Ac-CoA and measured after 60 mins by liquid scintillation counting assay
CREB-binding protein, sequence (Q92793 whole entry): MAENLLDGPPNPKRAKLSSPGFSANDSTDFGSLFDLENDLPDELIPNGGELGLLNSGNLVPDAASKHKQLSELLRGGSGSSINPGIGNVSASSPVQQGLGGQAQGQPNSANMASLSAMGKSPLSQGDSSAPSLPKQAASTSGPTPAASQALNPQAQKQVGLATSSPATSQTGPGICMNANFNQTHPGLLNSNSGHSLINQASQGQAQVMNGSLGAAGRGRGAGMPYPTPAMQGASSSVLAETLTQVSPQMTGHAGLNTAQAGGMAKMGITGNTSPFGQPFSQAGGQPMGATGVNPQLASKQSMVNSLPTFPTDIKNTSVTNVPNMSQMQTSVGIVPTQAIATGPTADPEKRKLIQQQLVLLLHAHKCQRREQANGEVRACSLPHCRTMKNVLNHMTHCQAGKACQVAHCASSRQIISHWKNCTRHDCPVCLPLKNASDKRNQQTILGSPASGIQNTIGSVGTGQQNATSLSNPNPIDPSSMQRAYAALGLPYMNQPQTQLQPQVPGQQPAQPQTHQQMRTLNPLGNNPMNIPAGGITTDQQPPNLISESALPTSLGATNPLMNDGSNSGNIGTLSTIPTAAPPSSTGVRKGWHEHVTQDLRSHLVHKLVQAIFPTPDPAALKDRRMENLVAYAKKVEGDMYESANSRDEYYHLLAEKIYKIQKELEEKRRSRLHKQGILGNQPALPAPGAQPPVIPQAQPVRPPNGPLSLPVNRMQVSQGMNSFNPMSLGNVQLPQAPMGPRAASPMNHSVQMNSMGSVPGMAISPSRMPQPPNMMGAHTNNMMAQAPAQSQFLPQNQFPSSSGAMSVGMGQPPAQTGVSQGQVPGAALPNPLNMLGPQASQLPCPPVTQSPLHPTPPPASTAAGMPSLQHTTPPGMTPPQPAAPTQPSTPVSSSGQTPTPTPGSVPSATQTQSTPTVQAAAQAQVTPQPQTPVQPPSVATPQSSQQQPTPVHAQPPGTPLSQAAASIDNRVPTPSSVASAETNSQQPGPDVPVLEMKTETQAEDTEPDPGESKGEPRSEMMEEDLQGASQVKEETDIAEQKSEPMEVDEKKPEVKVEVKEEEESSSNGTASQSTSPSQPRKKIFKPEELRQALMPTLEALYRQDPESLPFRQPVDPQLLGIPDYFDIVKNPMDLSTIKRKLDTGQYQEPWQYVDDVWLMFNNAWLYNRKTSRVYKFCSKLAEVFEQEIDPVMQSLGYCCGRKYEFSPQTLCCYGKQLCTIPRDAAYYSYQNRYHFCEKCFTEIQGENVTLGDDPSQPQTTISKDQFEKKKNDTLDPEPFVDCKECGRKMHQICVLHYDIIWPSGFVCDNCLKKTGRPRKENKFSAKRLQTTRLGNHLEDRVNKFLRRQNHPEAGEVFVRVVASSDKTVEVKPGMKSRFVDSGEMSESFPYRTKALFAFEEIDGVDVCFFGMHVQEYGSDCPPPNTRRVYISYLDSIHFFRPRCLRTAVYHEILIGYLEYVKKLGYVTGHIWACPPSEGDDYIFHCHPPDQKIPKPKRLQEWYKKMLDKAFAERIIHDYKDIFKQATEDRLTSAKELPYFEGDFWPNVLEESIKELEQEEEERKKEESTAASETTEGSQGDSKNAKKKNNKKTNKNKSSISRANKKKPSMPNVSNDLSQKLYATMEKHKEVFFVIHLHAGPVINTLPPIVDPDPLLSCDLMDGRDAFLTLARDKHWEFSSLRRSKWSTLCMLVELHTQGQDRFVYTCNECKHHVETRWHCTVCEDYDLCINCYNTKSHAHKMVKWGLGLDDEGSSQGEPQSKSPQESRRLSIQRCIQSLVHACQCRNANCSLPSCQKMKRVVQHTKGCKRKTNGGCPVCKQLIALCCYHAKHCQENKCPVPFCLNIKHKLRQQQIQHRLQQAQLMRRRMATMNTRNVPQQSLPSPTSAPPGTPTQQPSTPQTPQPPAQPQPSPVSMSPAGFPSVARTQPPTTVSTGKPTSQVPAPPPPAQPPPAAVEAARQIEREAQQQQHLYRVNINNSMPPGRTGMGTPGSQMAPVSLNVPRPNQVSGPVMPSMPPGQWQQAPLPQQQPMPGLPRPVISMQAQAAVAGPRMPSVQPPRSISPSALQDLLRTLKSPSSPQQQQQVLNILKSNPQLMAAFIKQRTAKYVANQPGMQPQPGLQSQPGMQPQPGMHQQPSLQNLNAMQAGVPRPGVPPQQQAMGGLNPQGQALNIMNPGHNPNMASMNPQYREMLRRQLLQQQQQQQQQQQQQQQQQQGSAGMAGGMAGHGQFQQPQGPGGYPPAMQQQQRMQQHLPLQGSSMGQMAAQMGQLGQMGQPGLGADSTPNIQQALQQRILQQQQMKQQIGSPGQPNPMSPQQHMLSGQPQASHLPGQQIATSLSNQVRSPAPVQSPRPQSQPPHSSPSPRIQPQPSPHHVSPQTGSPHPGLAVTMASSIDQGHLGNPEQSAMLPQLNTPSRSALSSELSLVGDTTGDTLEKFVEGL

[1] = target: T1, Histone acetyltransferase p300 (Homo sapiens, UniProt Q09472); test: Inhibition of p300 (unknown origin) preincubated for 15 mins followed by addition of substrate [3H] Ac-CoA and measured after 60 mins by liquid scintillation counting assay
T1 sequence (Q09472 whole entry): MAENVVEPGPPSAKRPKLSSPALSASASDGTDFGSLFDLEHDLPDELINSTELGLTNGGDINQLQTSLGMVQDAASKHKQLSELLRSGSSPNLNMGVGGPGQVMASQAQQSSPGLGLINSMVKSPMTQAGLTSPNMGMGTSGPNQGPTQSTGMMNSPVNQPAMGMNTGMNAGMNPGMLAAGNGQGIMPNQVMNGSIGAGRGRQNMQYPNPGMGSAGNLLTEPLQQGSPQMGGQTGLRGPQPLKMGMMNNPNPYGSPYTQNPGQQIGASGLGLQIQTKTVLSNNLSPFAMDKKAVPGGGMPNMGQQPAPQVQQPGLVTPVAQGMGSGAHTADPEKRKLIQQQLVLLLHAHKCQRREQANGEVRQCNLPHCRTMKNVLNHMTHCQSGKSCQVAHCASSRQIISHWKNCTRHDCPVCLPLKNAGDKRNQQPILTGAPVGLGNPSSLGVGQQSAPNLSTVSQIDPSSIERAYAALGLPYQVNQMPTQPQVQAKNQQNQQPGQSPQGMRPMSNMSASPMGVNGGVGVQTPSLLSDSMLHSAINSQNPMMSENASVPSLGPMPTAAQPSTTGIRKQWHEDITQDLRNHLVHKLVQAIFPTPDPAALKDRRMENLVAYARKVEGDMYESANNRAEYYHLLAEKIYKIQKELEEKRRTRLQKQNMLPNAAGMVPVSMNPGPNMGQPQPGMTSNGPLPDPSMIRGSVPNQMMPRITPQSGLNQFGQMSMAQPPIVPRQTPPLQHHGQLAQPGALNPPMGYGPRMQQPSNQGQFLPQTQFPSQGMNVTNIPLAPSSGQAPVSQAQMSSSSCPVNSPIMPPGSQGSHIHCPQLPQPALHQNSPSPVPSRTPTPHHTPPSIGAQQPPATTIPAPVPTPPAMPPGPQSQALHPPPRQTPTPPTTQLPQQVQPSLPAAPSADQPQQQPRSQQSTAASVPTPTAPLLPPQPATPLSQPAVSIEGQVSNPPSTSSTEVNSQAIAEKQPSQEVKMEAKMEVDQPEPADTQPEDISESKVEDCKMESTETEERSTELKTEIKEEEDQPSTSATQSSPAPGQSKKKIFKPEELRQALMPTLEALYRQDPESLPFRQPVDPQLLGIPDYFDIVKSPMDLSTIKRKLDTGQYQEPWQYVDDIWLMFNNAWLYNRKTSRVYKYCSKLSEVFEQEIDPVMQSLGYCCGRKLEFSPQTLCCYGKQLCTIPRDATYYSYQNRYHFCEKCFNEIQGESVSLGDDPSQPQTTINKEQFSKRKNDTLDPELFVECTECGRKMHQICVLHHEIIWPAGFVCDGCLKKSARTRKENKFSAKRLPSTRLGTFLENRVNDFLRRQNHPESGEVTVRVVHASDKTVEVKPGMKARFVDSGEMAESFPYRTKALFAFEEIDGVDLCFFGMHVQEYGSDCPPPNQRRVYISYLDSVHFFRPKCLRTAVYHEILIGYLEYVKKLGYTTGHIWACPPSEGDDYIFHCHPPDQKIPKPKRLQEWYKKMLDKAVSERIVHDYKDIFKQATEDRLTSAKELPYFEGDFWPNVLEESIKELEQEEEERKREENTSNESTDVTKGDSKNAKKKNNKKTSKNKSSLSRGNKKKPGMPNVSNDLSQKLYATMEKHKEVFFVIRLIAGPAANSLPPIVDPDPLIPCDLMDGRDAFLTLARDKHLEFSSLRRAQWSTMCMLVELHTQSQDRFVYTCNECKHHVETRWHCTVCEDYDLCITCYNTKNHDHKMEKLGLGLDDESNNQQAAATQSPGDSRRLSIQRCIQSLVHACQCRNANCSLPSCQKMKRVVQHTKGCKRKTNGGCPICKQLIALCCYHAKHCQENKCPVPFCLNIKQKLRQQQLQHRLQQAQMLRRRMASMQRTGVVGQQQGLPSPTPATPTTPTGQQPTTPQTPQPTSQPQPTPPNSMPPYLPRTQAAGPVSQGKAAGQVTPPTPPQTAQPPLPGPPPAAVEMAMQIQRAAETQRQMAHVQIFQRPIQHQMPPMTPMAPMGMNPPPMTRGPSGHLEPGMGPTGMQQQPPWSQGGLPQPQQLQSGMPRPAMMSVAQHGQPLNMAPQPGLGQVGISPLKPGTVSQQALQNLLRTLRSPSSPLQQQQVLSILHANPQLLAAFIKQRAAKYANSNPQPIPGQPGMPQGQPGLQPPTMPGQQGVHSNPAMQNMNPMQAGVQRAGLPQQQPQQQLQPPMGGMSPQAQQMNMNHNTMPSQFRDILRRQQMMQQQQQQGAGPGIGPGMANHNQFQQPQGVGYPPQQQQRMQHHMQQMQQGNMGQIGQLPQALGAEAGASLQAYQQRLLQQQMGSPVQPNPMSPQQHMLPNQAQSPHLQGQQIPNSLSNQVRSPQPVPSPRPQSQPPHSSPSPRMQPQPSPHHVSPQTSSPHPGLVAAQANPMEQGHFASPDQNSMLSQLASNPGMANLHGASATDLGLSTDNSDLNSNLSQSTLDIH

[2] = Cmax in Sprague-Dawley rat at 3 mg/kg, po; type: ADME, organism-based; set-up: route oral, dose 3 mg/kg; settings: in vivo
[3] = Half life in Sprague-Dawley rat at 3 mg/kg, po; type: ADME, organism-based; settings: in vivo
[4] = Toxicity in Balb/c nude mouse xenografted with human OVCAR-3 cells assessed as body weight loss at 20 to 30 mg/kg, ip qd measured every 3 to 4 days for 2 weeks; type: organism-based; settings: in vivo, 336 h, dose 20-30 mg/kg
OVCAR-3 [5] = test: Antiproliferative activity against human OVCAR-3 cells assessed as inhibition of cell proliferation measured after 120 hrs by Cell-titre glo assay; type: functional, cell-based; settings: OVCAR-3, 120 h
[6] = Stability in mouse liver microsomes assessed as intrinsic clearance; type: ADME, Microsome
[7] = Toxicity in Balb/c nude mouse xenografted with human OVCAR-3 cells assessed as body weight loss at 30 mg/kg, ip measured after 24 days; type: organism-based; settings: in vivo, 576 h, time 24 day
SK-OV-3 = test: Antiproliferative activity against human SK-OV-3 cells assessed as inhibition of cell proliferation measured after 120 hrs by Cell-titre glo assay; type: functional, cell-based
[8] = target: T1, Histone acetyltransferase p300; test: Inhibition of p300 in human OVCAR-3 cells assessed as reduction of H3K27ac levels measured after 24 hrs by Western blot assay; type: cell-based; settings: dose 0.25-4 µM
OVCAR-3 [9] = test: Antitumour activity against human OVCAR-3 cells xenografted in Balb/c mouse assessed as reduction of tumor volume at 30 mg/kg, ip qd measured every 3 to 4 days for 2 weeks (reference value: 2838.39 +/- 1392.47 mm3); type: functional
[10] = target: T1, Histone acetyltransferase p300; test: Inhibition of p300 (unknown origin)
OVCAR-3 [11] = test: Antitumour activity against human OVCAR-3 cells xenografted in Balb/c mouse assessed as reduction of tumor volume at 20 mg/kg, ip qd measured every 3 to 4 days for 2 weeks; type: functional, organism-based
[12] = Tmax in Sprague-Dawley rat at 3 mg/kg, po; type: ADME, organism-based; settings: in vivo
[13] = Stability in rat liver microsomes assessed as intrinsic clearance; type: ADME, Microsome
TOV21G = test: Antiproliferative activity against human TOV-21G cells assessed as inhibition of cell proliferation measured after 120 hrs by Cell-titre glo assay; type: functional, cell-based
[14] = AUC(last) in Sprague-Dawley rat at 3 mg/kg, po; type: ADME, organism-based; set-up: time 0 - last, route oral, dose 3 mg/kg; settings: in vivo
OVCAR-3 [15] = test: Antitumour activity against human OVCAR-3 cells xenografted in Balb/c mouse assessed as reduction of tumor volume at 100 mg/kg, ip qd measured every 3 to 4 days for 2 weeks; type: functional, organism-based
[16] = target: CREB-binding protein/Histone acetyltransferase p300 (Homo sapiens) (UniProt Q09472+Q92793); test: Inhibition of p300/CBP in human OVCAR-3 cells assessed as reduction of C-myc levels at 0.25 uM measured after 2 days by Western blot assay relative to control; type: cell-based; settings: time 2.0 day
CREB-binding protein/Histone acetyltransferase p300 (Homo sapiens), sequence (Q09472 whole entry, looked up): as the sequence (Q09472 whole entry) above
CREB-binding protein/Histone acetyltransferase p300 (Homo sapiens), sequence (Q92793 whole entry, looked up): as the sequence (Q92793 whole entry) above

A2780 = test: Antiproliferative activity against human A2780 cells assessed as inhibition of cell proliferation measured after 120 hrs by Cell-titre glo assay; type: functional, cell-based; settings: A2780, 120 h
[17] = target: Histone acetyltransferase KAT2A (Homo sapiens) (UniProt Q92830); test: Inhibition of GCN5 in human OVCAR-3 cells assessed as reduction of H3K9ac levels at 0.25 to 4 uM after 24 hrs by Western blot assay; type: cell-based; settings: dose 0.25-4 µM
[18] = target: T1, Histone acetyltransferase p300; test: Inhibition of p300 in human OVCAR-3 cells assessed as reduction of H3K18ac levels measured after 24 hrs by Western blot assay; type: cell-based; settings: dose 0.25-4 µM
HEK293 = test: Antiproliferative activity against human 293 cells assessed as inhibition of cell proliferation measured after 120 hrs by Cell-titre glo assay; type: cell-based; settings: hek293, 120 h
[19] = Stability in human liver microsomes assessed as intrinsic clearance; type: ADME, Microsome

| Structure (SMILES) | pIC50 (CREB-binding protein) | pIC50 [1] | pEC50 (OVCAR-3 [5]) | pEC50 (A2780) | other results |
| --- | --- | --- | --- | --- | --- |
| CNC(=O)Nc1ccc2c(c1)CC[C@@]21OC(=O)N(CC(=O)N2Cc3ccncc3CC[C@H]2C2CC2)C1=O | 7.55 | 8.01 |  |  |  |
| CNC(=O)Nc1ccc2c(c1)CC[C@@]21OC(=O)N(CC(=O)N2Cc3cc(F)ccc3OC[C@H]2C2CC2)C1=O | 8.15 | 9.31 | 6.82 | 6.17 | Cmax [2]: 20.3 ng/mL; t1/2 [3]: 1.4 h; Activity [4]: Toxic; CLH [6]: 48 mL/min/g; Activity [7]: Toxic; Activity (SK-OV-3): Active; inhibition [8]: Dose-Dependent Effect; Activity (OVCAR-3 [9]): 1703.74 mm3; pIC50 [10]: 9.29; Activity (OVCAR-3 [11]): Active; Tmax [12]: 1 h; CLH [13]: 66.5 mL/min/g; Activity (TOV21G): Active; AUClast [14]: 480 ng·h/mL; Activity (OVCAR-3 [15]): Active; inhibition [16]: 50%; inhibition [17]: inactive; inhibition [18]: Dose-Dependent Effect; Activity (HEK293): Non-Toxic; CLH [19]: 34.8 mL/min/g |
| CNC(=O)Nc1ccc2c(c1)CCC[C@@]21OC(=O)N(CC(=O)N2Cc3ccc(F)cc3CC[C@H]2C2CC2)C1=O | 7.85 | 8.66 |  |  |  |
| CNC(=O)Nc1ccc2c(c1)CC[C@@]21OC(=O)N(CC(=O)N(Cc2ccc(F)cc2)[C@@H](C)C(F)(F)F)C1=O [A-485] |  |  | 5.26 |  |  |
| CNC(=O)Nc1ccc2c(c1)COC[C@@]21OC(=O)N(CC(=O)N2Cc3cc(F)ccc3OC[C@H]2C2CC2)C1=O | 7.29 | 7.92 |  |  |  |
| CNC(=O)Nc1ccc2c(c1)OCC[C@@]21OC(=O)N(CC(=O)N2Cc3ccc(F)cc3CC[C@H]2C2CC2)C1=O | 7.66 | 8.07 |  |  |  |
| CNC(=O)Nc1ccc2c(c1)CC[C@@]21OC(=O)N(CC(=O)N2Cc3cc(F)c(F)cc3CC[C@H]2C2CC2)C1=O | 8.15 | 9.25 | 6.79 | 6.01 |  |

Further molecules by rising pIC50 (CREB-binding protein), results first:

| pIC50 (CREB-binding protein) | pIC50 [1] | pEC50 (OVCAR-3 [5]) | pEC50 (A2780) | Structure (SMILES) | other results |
| --- | --- | --- | --- | --- | --- |
| 6.17 | 6.37 |  |  | CNC(=O)Nc1ccc2c(c1)CC[C@@]21OC(=O)N(CC(=O)N2Cc3sc(C)c(C)c3OC[C@H]2C(F)(F)F)C1=O |  |
| 7.16 | 7.96 |  |  | CNC(=O)Nc1ccc2c(c1)CCC[C@@]21OC(=O)N(CC(=O)N2Cc3cc(F)ccc3OC[C@H]2C2CC2)C1=O |  |
| 7.36 | 8.00 |  |  | CNC(=O)Nc1ccc2c(c1)CC[C@@]21OC(=O)N(CC(=O)N2Cc3cccnc3CC[C@H]2C2CC2)C1=O |  |
| 7.39 | 7.89 |  |  | CNC(=O)Nc1ccc2c(c1)CC[C@@]21OC(=O)N(CC(=O)N2Cc3cnccc3CC[C@H]2C2CC2)C1=O |  |
| 7.52 | 8.07 |  |  | CNC(=O)Nc1ccc2c(c1)CC[C@@]21OC(=O)N(CC(=O)N2Cc3ncccc3CC[C@H]2C2CC2)C1=O |  |
| 7.55 | 8.60 | 6.06 | 5.57 | CNC(=O)Nc1ccc2c(c1)CC[C@@]21OC(=O)N(CC(=O)N2Cc3ccccc3CC[C@H]2C)C1=O |  |
| 7.92 | 8.40 |  |  | CNC(=O)Nc1ccc2c(c1)CC[C@@]21OC(=O)N(CC(=O)N2Cc3sccc3OC[C@H]2C2CC2)C1=O |  |
| 8.09 | 8.77 | 5.37 | 5.35 | CNC(=O)Nc1cc2c(cc1F)[C@@]1(CC2)OC(=O)N(CC(=O)N2Cc3ccc(F)cc3CC[C@H]2C2CC2)C1=O | CLH [6]: 106 mL/min/g; CLH [13]: 94.4 mL/min/g; CLH [19]: 161 mL/min/g |
| 8.09 | 9.02 | 7.04 | 6.33 | CNC(=O)Nc1ccc2c(c1)CC[C@@]21OC(=O)N(CC(=O)N2Cc3ccc(F)cc3CC[C@H]2C2CC2)C1=O | CLH [6]: 150 mL/min/g; CLH [13]: 258 mL/min/g; CLH [19]: 112 mL/min/g |
